# According to patent EP4671239A1, “ARYL SUBSTITUENT-CONTAINING DEGRADATION AGENT FOR CDK12/13, PREPARATION METHOD THEREFOR, AND PHARMACEUTICAL COMPOSITION AND USE THEREOF” (Shanghai Institute of Organic Chemistry, Chinese Academy of …, priority 2023, dated 2024):
# What was measured:
# [1] = test system: triple negative breast cancer cells MDA-MB-231; assay: Proliferation-inhibiting activity on MDA-MB-231 cells (Cell Counting Kit-8); format: cell-based; conditions: Homo sapiens, 120 h; MDA-MB-231 cell line, 5 days, cck-8 (FIG. 3)
# Procedure: The cell proliferation-inhibiting activity of the compounds was determined using Cell Counting Kit-8 Cell Viability Assay (Selleck.cn). The cells were seeded into a 384-well plate (CORNING® PS 3701) containing the corresponding culture medium and incubated in an incubator at 37°C with 5% CO2. After overnight incubation, a high-concentration stock solution of each compound to be tested was prepared; the compound was added to the 384-well plate according to a concentration gradient using an Echo® 650 Liquid Handler (LABCYTE®). After administration, the cell plate was placed in an incubator at 37°C with 5% CO2 and incubated for 5 days. Then, 5 µL of cck-8 reagent was added to each well of the 384-well plate using MULTIDROP® (Thermo Scientific™), and the plate was returned to the incubator for incubation for 1.5-2 h. After incubation, the plate was removed and centrifuged to remove bubbles. The absorbance of each well at 450 nm and 650 nm was obtained using EnVision® (PerkinElmer®). GraphPad Prism software (GraphPad Software Inc.) was used to process and analyze the data.
# CDK12 and CDK13 proteins [2] = assay: Degradation activity on CDK12/13 in MDA-MB-231 cells (Western Blot); format: cell-based; conditions: 0.1µM or 0.3µM, 15 h, WB (FIG. 1)
# Procedure: Experimental methods: The cell line MDA-MB-231 was purchased from the American Type Culture Collection (ATCC). Conventional Western Blot was used for detection, as follows: MDA-MB-231 cells were seeded at a density of 2 x 10^5/mL in a 12-well plate, with 1 mL per well, and cultured overnight in an incubator in an adherent manner. Then, a certain concentration of compounds was added to act for 15 h. The cells were lysed with a lysis buffer, and protein samples were collected. An appropriate amount of the sample was taken for SDS-PAGE electrophoresis. After electrophoresis, the protein was transferred to a polyvinylidene fluoride (PVDF) membrane using a wet electro-transfer system. The PVDF membrane after electro-transfer was cut into several required strips, which were then placed in a blocking solution (5% skim milk powder diluted in TBS containing 0.1% Tween 20) and blocked at room temperature for 1.5 h. A primary antibody solution was prepared by diluting a primary antibody against the corresponding target protein in TBS containing 0.1% Tween 20 according to the dilution requirements of different antibodies, such as 1:1000 (CST), 1:3000 (Proteintech, Bethyl), and 1:200 (Santacruz). The blocked membrane was placed in the corresponding primary antibody solution and incubated at 4°C for 12-14 h. Then, the cells were washed three times with TBS containing 0.1% Tween 20, each time for 5 min. After washing, the membrane was placed in a secondary antibody solution (horseradish peroxidase-labeled goat anti-rabbit IgG, diluted at 1:2000 in TBS containing 0.1% Tween 20) and reacted at room temperature for 2 h. After washing the membrane three times as above, the membrane was developed with StarSignal plus reagent (GenStar®) and Omni-ECL reagent (Yazyme®), and photographed with Amersham Imager 800 system.
# [3] = test system: prostate cancer VCap cells; assay: Proliferation-inhibiting activity on VCap cells (CellTiter-Glo); format: cell-based; conditions: Homo sapiens; VCap cell line, CellTiter-Glo (FIG. 6)
# Procedure: The cell proliferation-inhibiting activity of the compounds was determined using the CellTiter-Glo Luminescent Cell Viability Assay (Promega, Madison, WI). The cells were seeded in a 96-well plate in their respective culture media and incubated at 37°C in a 5% CO2 incubator. After overnight incubation, serial dilutions of the compounds were prepared and added to the 96-well plate. A volume of CellTiter-Glo reagent equal to the volume of the cell culture medium present in each well was added (e.g., 100 microliters of the reagent was added to 100 microliters of the culture medium for the cells in the 96-well plate). The contents were mixed on an orbital shaker for 2 min to induce cell lysis. The 96-well plate was incubated at room temperature for 10 minutes to stabilize a luminescent signal. Luminescence was recorded: the luminescence signal of each well was acquired using an Infinite M1000 Pro plate reader (Tecan, Zürich, Switzerland), and the data were analyzed using GraphPad Prism software (GraphPad Software Inc, La Jolla, CA).
# [4] = Pharmacokinetics and bioavailability test in rats (Example 60); format: in vivo; conditions: SD rats; for F: bioavailability calculated from AUC; for oral pharmacokinetic properties: summary in words of Tables 2-6; for Cmax / Tmax / clearance / half-life: rat
# Procedure: Pharmacokinetics and bioavailability tests in rats. SD rats were given a single oral (10 mg/kg), intravenous (2.5 mg/kg) and intraperitoneal (10 mg/kg) dose, followed by animal blood sample collection at appropriate time points. Heparin was added for anticoagulation, and the samples were centrifuged at 8000 rpm for 6 min. The supernatant was collected and stored at -20°C for HPLC-MS analysis. The blood samples underwent protein precipitation with acetonitrile at 12 000 rpm * 10 min, and the supernatant was used for HPCL-MS analysis. The data underwent parameter fitting with DAS2.0, to obtain compartmental model and non-compartmental model parameters, respectively. The oral bioavailability of the compounds was calculated based on the area under the plasma concentration-time curve (AUC) data. […] Table 2. Pharmacokinetic experimental results of compounds YJZ9069 and YJZ1102
# CDK12 and CDK13 proteins [5] = assay: Degradation activity on CDK12/13 in 22RV1 cells (Western Blot); format: cell-based; conditions: 22RV1 cells; for degradation of CDK12 and CDK13 proteins: 100 nM, 6 h (FIG. 5); for degradation of CDK12 and CDK13 protein levels in cells: 500 nM, 6 hours, WB (FIG. 4); for dose dependence of degradation of CDK12 and CDK13 proteins: different concentrations, 6 h (FIG. 4B, FIG. 5)
# Procedure: Experimental methods: The cell line, 22RV1 cell line was purchased from the American Type Culture Collection (ATCC). Conventional Western Blot was used for detection as follows: 22RV1 cells were seeded in a certain number in a 12-well plate, and cultured overnight in an incubator in an adherent manner. […] The cells were lysed with a lysis buffer, and samples were collected. Then, an appropriate amount of the samples was taken for SDS-PAGE electrophoresis. After electrophoresis, the proteins were transferred to nitrocellulose membranes using a semi-dry electro-transfer system. The nitrocellulose membrane was placed in a blocking solution (5% skim milk powder diluted in TBS containing 0.1% Tween 20) and blocked at room temperature for 2 h. The membranes were then placed in a primary antibody solution (1: 1000 diluted in TBS containing 0.1% Tween 20), respectively, and incubated at 4°C overnight. The cells were washed three times with TBS containing 0.1% Tween 20, each time for 15 min. The membrane was placed in a secondary antibody solution (horseradish peroxidase-labeled goat anti-rabbit IgG, diluted at 1:1000 in TBS containing 0.1% Tween 20) and reacted at room temperature for 1 h. After washing the membrane three times as above, the membrane was developed with ECL plus reagent and photographed using Amersham Imager 600 system.
# [6] = Sprague-Dawley, plasma, IV 2.5 mg/kg
# [7] = Sprague-Dawley, plasma, PO 10 mg/kg
SMILES,IC50 [1] [nM],degradation of CDK12 and CDK13 protein levels in cells (CDK12 and CDK13 proteins [2]),IC50 [3] [nM],F ([4]; PO 10 mg/kg) [%],oral pharmacokinetic properties [4],"Cmax [4, 6] [ng/mL]","Tmax [4, 6] [h]","clearance [4, 6] [mL/min/kg]","half-life [4, 6] [h]","Cmax [4, 7] [ng/mL]","Tmax [4, 7] [h]","half-life [4, 7] [h]",degradation of CDK12 and CDK13 proteins (CDK12 and CDK13 proteins [5]),degradation of CDK12 and CDK13 protein levels in cells (CDK12 and CDK13 proteins [5]),dose dependence of degradation of CDK12 and CDK13 proteins (CDK12 and CDK13 proteins [5]),also measured
N#Cc1ccc(N[C@H]2CC[C@H](N(C(=O)NCc3ccccc3)c3ccc(N4CCN(C[C@H]5CCN(c6ccc7c(c6)C(=O)N(C6CCC(=O)NC6=O)C7=O)C5)CC4)cc3)CC2)nc1 (stereo partly drawn) [ZLC6-1],289,effectively degrade,,,,,,,,,,,,,,
N#Cc1ccc(N[C@H]2CC[C@H](N(C(=O)NCc3ccccc3)c3ccc(N4CCN(CC5CN(c6ccc7c(c6)C(=O)N(C6CCC(=O)NC6=O)C7=O)C5)CC4)cc3)CC2)nc1 (stereo partly drawn) [ZLC5-6],498,effectively degrade,,,,,,,,,,,,,,
"O=C1CCC(N2C(=O)c3ccc(N4CCC(CN5CCN(c6ccc(N(C(=O)NCc7ccccc7)[C@H]7CC[C@H](Nc8ncc9ccccc9n8)CC7)cc6)CC5)CC4)cc3C2=O)C(=O)N1 (stereo partly drawn) [YJZ1097, 3-benzyl-1-(4-(4-((1-(2-(2,6-dioxopiperidin-3-yl)-1,3-dioxoisoindole-5-yl)piperidin-4-yl)methyl)piperazin-1-yl)phenyl)-1-((1r,4r)-4-(quinazolin-2-ylamino)cyclohexyl)urea]",,,3.93,23.89,excellent,2490,0.08,3.12,13.8,593,6.7,15.2,almost completely degrade,effectively degrade,dose-dependent manner,
N#Cc1ccc(N[C@H]2CC[C@H](N(C(=O)NCc3ccccc3)c3ccc(N4CCN(C(=O)C5CCN(c6ccc7c(c6)C(=O)N(C6CCC(=O)NC6=O)C7=O)CC5)CC4)cc3)CC2)nc1 (stereo partly drawn) [ZLC5-31],389,effectively degrade,,,,,,,,,,,,,,
O=C1CCC(N2C(=O)c3cc(F)c(N4CCC(N5CCN(c6ccc(N(C(=O)NCc7ccccc7)[C@H]7CC[C@H](Nc8ncc9ccccc9n8)CC7)cc6)CC5)CC4)cc3C2=O)C(=O)N1 (stereo partly drawn) [YJZ1201],,,64.4,39.60,excellent,2510,0.08,3.27,10.8,1040,6.67,12.4,almost completely degrade,effectively degrade,dose-dependent manner,
"O=C1CCC(N2C(=O)c3ccc(N4CCC(N5CCN(c6ccc(N(C(=O)NCc7ccccc7)[C@H]7CC[C@H](Nc8ncc9ccccc9n8)CC7)cc6)CC5)CC4)cc3C2=O)C(=O)N1 (stereo partly drawn) [YJZ1105, 3-benzyl-1-(4-(4-(1-(2-(2,6-dioxopiperidin-3-yl)-1,3-dioxoisoindol-5-yl)piperidin-4-yl)-piperazin-1-yl)phenyl)-1-((1r,4r)-4-(quinazolin-2-ylamino)cyclohexyl)urea]",,,15.1,26.64,excellent,1390,0.08,4.8,7.05,625,6,7.2,,effectively degrade,,
"O=C1CCC(N2C(=O)c3ccc(N4CCC(N5CCN(c6ccc(N(C(=O)NCc7ccccc7)[C@H]7CC[C@H](Nc8ncc9ccccc9n8)CC7)cc6F)CC5)CC4)cc3C2=O)C(=O)N1 (stereo partly drawn) [YJZ1204, 3-benzyl-1-(4-(4-(1-(2-(2,6-dioxopiperidin-3-yl)-1,3-dioxoisoindole-5-yl)piperidin-4-yl)-piperazin-1-yl)-3-fluorophenyl)-1-((1r,4r)-4-(quinazolin-2-ylamino)cyclohexyl)urea]",,,23.3,30.13,excellent,2290,0.08,6.01,8.54,457,7.33,10.8,almost completely degrade,effectively degrade,dose-dependent manner,
"O=C1CCC(N2C(=O)c3ccc(N4CCN(C5CCN(c6ccc(N(C(=O)NCc7ccccc7)[C@H]7CC[C@H](Nc8ncc9ccccc9n8)CC7)cc6)CC5)CC4)cc3C2=O)C(=O)N1 (stereo partly drawn) [YJZ1202, 3-benzyl-1-(4-(4-(2-(2,6-dioxopiperidin-3-yl)-1,3-dioxoisoindole-5-yl)piperazin-1-yl)piperidin-1-ylphenyl)-1-((1r,4r)-4-(quinazolin-2-ylamino)cyclohexyl)urea]",,,17.5,13.51,excellent,,,,,,,,almost completely degrade,effectively degrade,dose-dependent manner,"Cmax ([4]; in vivo, IV 2.5 mg/kg): 2310 ng/mL; Tmax ([4]; in vivo, IV 2.5 mg/kg): 0.08 h; clearance ([4]; in vivo, IV 2.5 mg/kg): 6.7 mL/min/kg; half-life ([4]; in vivo, IV 2.5 mg/kg): 4.13 h; Cmax ([4]; in vivo, PO 10 mg/kg): 291 ng/mL; Tmax ([4]; in vivo, PO 10 mg/kg): 5.33 h; half-life ([4]; in vivo, PO 10 mg/kg): 3.76 h"
